According to patent US20080032945A1, “2'-MODIFIED OLIGONUCLEOTIDES” (Isis Pharmaceuticals, Inc., priority 1992, published 2008):
Values joined by “and” are separate entries in the source; they are usually repeats but may differ in a detail not shown here. Identical values can stand only once. “Also recorded” adds a separate entry of the source. [OPent] = 2'-O-pentyl ribonucleoside; d = 2'-deoxy (DNA); m = 2'-O-methyl; f = 2'-fluoro

What was measured:
[1] = test system: c-raf mRNA; test: Northern blot analysis of inhibition of c-raf mRNA expression in T24 cells; format: cell-based, human
Description: Chimeric oligonucleotides having SEQ ID NO:7 were designed using the Genbank c-raf sequence HUMRAFR (Genbank listing x03484), synthesized and tested for inhibition of c-raf mRNA expression in T24 bladder carcinoma cells using a Northern blot assay. These chimeric oligonucleotides have central “gap” regions of 6, 8 or 10 deoxynucleotides flanked by two regions of 2′-O-methyl modified nucleotides, and are shown in Table 10. Backbones were uniformly phosphorothioate. […] These oligonucleotides are preferred.
The human urinary bladder cancer cell line T24 was obtained from the American Type Culture Collection (Rockville, Md.). Cells were grown in McCoy's 5A medium with L-glutamine (GIBCO-BRL, Gaithersburg, Md.), supplemented with 10% heat-inactivated fetal calf serum and 50 U/ml each of penicillin and streptomycin. Cells were seeded on 100 mm plates. When they reached 70% confluency, they were treated with oligonucleotide. Plates were washed with 10 ml prewarmed PBS and 5 ml of OptiMEM reduced-serum medium containing 2.5 μl DOTMA. Oligonucleotide with lipofectin was then added to the desired concentration. After 4 hours of treatment, the medium was replaced with McCoy's medium. Cells were harvested 24 to 72 hours after oligonucleotide treatment and RNA was isolated using a standard CsCl purification method. [Kingston in Current Protocols in Molecular Biology, F. M. Ausubel, R. Brent, R. E. Kingston, D. D. Moore, J. A. Smith, J. G. Seidman and K. Strahl, Eds., John Wiley and Sons, New York.] Total RNA was isolated by centrifugation of cell lysates over a CsCl cushion. RNA samples were electrophoresed through 1.2% agarose-formaldehyde gels and transferred to hybridization membranes by capillary diffusion over a 12-14 hour period. The RNA was cross-linked to the membrane by exposure to UV light in a Stratalinker (Stratagene, La Jolla, Calif.) and hybridized to random-primed ^32P-labeled c-raf cDNA probe (obtained from ATCC) or G3PDH probe as a control. RNA was quantitated using a Phosphorimager (Molecular Dynamics, Sunnyvale, Calif.).

[2] = test system: ras-luciferase (codon-12 point mutation of activated H-ras); test: ras-luciferase reporter gene system; format: cell-based, human; conditions: for inhibition of ras-luciferase activity: cells expressing the mutant form of ras-luciferase, dose response, FIGS. 1 and 2
[3] = test system: 25mer oligoribonucleotide complement; test: Melting curves with 25mer oligoribonucleotide complement; format: binding; conditions: 17mer hybridized with 25mer oligoribonucleotide complement
Description: Other sugar modifications: The effects of other 2′ sugar modifications besides 2′-O-methyl on antisense activity in chimeric oligonucleotides have been examined. These modifications are listed in Table 4, along with the Tm values obtained when 17mer oligonucleotides having 2′-modified nucleotides flanking a 7-base deoxy gap were hybridized with a 25mer oligoribonucleotide complement as described in Example 25. […] As alkyl length increased, Tm decreased.
Absorbance vs. temperature curves were measured at 260 nm using a Gilford 260 spectrophotometer interfaced to an IBM PC computer and a Gilford Response II spectrophotometer. The buffer contained 100 mM Na^+, 10 mM phosphate and 0.1 mM EDTA, pH 7. Oligonucleotide concentration was 4 μM each strand determined from the absorbance at 85° C. and extinction coefficients calculated according to Puglisi and Tinoco [Methods in Enzymol., 180, 304 (1989). Tm values, free energies of duplex formation and association constants were obtained from fits of data to a two state model with linear sloping baselines. [Petersheim and Turner, Biochemistry, 22, 256 (1983). Reported parameters are averages of at least three experiments. For some oligonucleotides, free energies of duplex formation were also obtained from plots of Tm^−1 vs log10 (concentration). Borer et al., J. Mol. Biol., 86, 843 (1974).

[4] = test system: ras mRNA; test: Northern blot analysis of ras expression in T24 cells; format: cell-based, human; conditions: for ras expression / ras mRNA levels: result in words
Method: The human urinary bladder cancer cell line T24 was obtained from the American Type Culture Collection (Rockville Md.). Cells were grown in McCoy's 5A medium with L-glutamine (GIBCO-BRL, Gaithersburg, Md.), supplemented with 10% heat-inactivated fetal calf serum and 50 U/ml each of penicillin and streptomycin. Cells were seeded on 100 mm plates. When they reached 70% confluency, they were treated with oligonucleotide. Plates were washed with 10 ml prewarmed PBS and 5 ml of OptiMEM (GIBCO) reduced-serum medium containing 2.5 μl DOTMA. Oligonucleotide was then added to the desired concentration. After 4 hours of treatment, the medium was replaced with McCoy's medium. Cells were harvested 48 hours after oligonucleotide treatment and RNA was isolated using a standard CsCl purification method. [Kingston in Current Protocols in Molecular Biology, F. M. Ausubel, R. Brent, R. E. Kingston, D. D. Moore, J. A. Smith, J. G. Seidman and K. Strahl, Eds., John Wiley and Sons, New York.] The human epithelioid carcinoma cell line HeLa 229 was obtained from the American Type Culture Collection (Bethesda, Md.). HeLa cells were maintained as monolayers on 6-well plates in Dulbecco's Modified Eagle's medium (DMEM) supplemented with 10% fetal bovine serum and 100 U/ml penicillin. Treatment with oligonucleotide and isolation of RNA were essentially as described above for T24 cells.
Northern hybridization: 10 μg of each RNA was electrophoresed on a 1.2% agarose/formaldehyde gel and transferred overnight to GeneBind 45 nylon membrane (Pharmacia LKB, Piscataway, N.J.) using standard methods. [Kingston in Current Protocols in Molecular Biology, F. M. Ausubel, R. Brent, R. E. Kingston, D. D. Moore, J. A. Smith, J. G. Seidman and K. Strahl, Eds., John Wiley and Sons, New York.] RNA was UV-crosslinked to the membrane. Double-stranded ^32P-labeled probes were synthesized using the Prime a Gene labeling kit (Promega, Madison Wis.). The ras probe was a SalI-NheI fragment of a cDNA clone of the activated (mutant) H-ras mRNA having a GGC-to-GTC mutation at codon-12. The control probe was G3PDH. Blots were prehybridized for 15 minutes at 68° C. with the QuickHyb hybridization solution (Stratagene, La Jolla, Calif.). The heat-denatured radioactive probe (2.5×10^6 counts/2 ml hybridization solution) mixed with 100 μl of 10 mg/ml salmon sperm DNA was added and the membrane was hybridized for 1 hour at 68° C. The blots were washed twice for 15 minutes at room temperature in 2×SSC/0.1% SDS and once for 30 minutes at 60° C. with 0.1×SSC/0.1% SDS. Blots were autoradiographed and the intensity of signal was quantitated using an ImageQuant PhosphorImager (Molecular Dynamics, Sunnyvale, Calif.). Northern blots were first hybridized with the ras probe, then stripped by boiling for 15 minutes in 0.1×SSC/0.1% SDS and rehybridized with the control G3PDH probe to check for correct sample loading.

[5] = test system: ras mRNA (wild-type H-ras codon-12); test: Northern blot analysis of ras expression in HeLa cells; format: cell-based, human; conditions: result in words
Method: Oligonucleotides 2570 and 2503 were also tested to determine their effects on ras expression in HeLa cells, which have a wild-type (i.e., not activated) H-ras codon-12.
The human urinary bladder cancer cell line T24 was obtained from the American Type Culture Collection (Rockville Md.). Cells were grown in McCoy's 5A medium with L-glutamine (GIBCO-BRL, Gaithersburg, Md.), supplemented with 10% heat-inactivated fetal calf serum and 50 U/ml each of penicillin and streptomycin. Cells were seeded on 100 mm plates. When they reached 70% confluency, they were treated with oligonucleotide. Plates were washed with 10 ml prewarmed PBS and 5 ml of OptiMEM (GIBCO) reduced-serum medium containing 2.5 μl DOTMA. Oligonucleotide was then added to the desired concentration. After 4 hours of treatment, the medium was replaced with McCoy's medium. Cells were harvested 48 hours after oligonucleotide treatment and RNA was isolated using a standard CsCl purification method. […]
Northern hybridization: 10 μg of each RNA was electrophoresed on a 1.2% agarose/formaldehyde gel and transferred overnight to GeneBind 45 nylon membrane (Pharmacia LKB, Piscataway, N.J.) using standard methods. […] Blots were autoradiographed and the intensity of signal was quantitated using an ImageQuant PhosphorImager (Molecular Dynamics, Sunnyvale, Calif.). […]

[6] = test system: T24 cancer cell proliferation; test: Antisense oligonucleotide inhibition of proliferation of cancer cells; format: cell-based, human; conditions: for IC50: T24 cell proliferation, dose-response; for inhibited cell proliferation: T24 cells
Method: Antisense oligonucleotide inhibition of proliferation of cancer cells: Three 17mer oligonucleotides having the same sequence (SEQ ID NO:1), complementary to the codon 12 region of activated ras, were tested for effects on T24 cancer cell proliferation as described in Example 28. 3985 is a full phosphorothioate oligonucleotide having a 7-deoxy gap flanked by 2′-O-methyl nucleotides, and 4690 is a full phosphorothioate oligonucleotide having a 7-deoxy gap flanked by 2′-F nucleotides (C^FC^FA^F C^FA^FCd CdGdAd CdGdGd C^FG^FC^F C^FC^F, SEQ ID NO:1, nucleotides identified with an “^F” contain a […] substituent group and the remainder of the nucleotides identified with a “d” are 2′-deoxy-erythro-pentofuranosyl nucleotides).
Cells were cultured and treated with oligonucleotide essentially as described in Example 27. Cells were seeded on 60 mm plates and were treated with oligonucleotide in the presence of DOTMA when they reached 70% confluency. Time course experiment: On day 1, cells were treated with a single dose of oligonucleotide at a final concentration of 100 nM. The growth medium was changed once on day 3 and cells were counted every day for 5 days, using a counting chamber. Dose-response experiment: Various concentrations of oligonucleotide (10, 25, 50, 100 or 250 nM) were added to the cells and cells were harvested and counted 3 days later. Oligonucleotides 2570, 3985 and 4690 were tested for effects on T24 cancer cell proliferation.

[7] = test system: H-ras; test: ras transactivation reporter gene assay; format: cell-based; conditions: result in words
Method: These 2′ modified oligonucleotides were tested for antisense activity against H-ras using the transactivation reporter gene assay described in Example 26. […] A 2′-fluoro chimeric oligonucleotide with a centered 5-deoxy gap was also active.
The expression plasmid pSV2-oli, containing an activated (codon 12, GGC-GTC) H-ras cDNA insert under control of the constitutive SV40 promoter, was a gift from Dr. Bruno Tocque (Rhone-Poulenc Sante, Vitry, France). This plasmid was used as a template to construct, by PCR, a H-ras expression plasmid under regulation of the steroid-inducible mouse mammary tumor virus (MMTV) promoter. To obtain H-ras coding sequences, the 570 bp coding region of the H-ras gene was amplified by PCR. The PCR primers were designed with unique restriction endonuclease sites in their 5′-regions to facilitate cloning. The PCR product containing the coding region of the H-ras codon 12 mutant oncogene was gel purified, digested, and gel purified once again prior to cloning. This construction was completed by cloning the insert into the expression plasmid pMAMneo (Clontech Laboratories, CA).
The ras-responsive reporter gene pRDO53 was used to detect ras expression. [Owen et al., Proc. Natl. Acad. Sci. U.S.A., 87, 3866 (1990).

“TCCCGCCTGTGACATGCATT (all phosphorothioate, sugars by position and methylation of C not given here; further chemistry not fully specified) [ISIS 6717, chimeric 2′-O-methyl P═S c-raf oligonucleotide, 8-deoxy gap]” was tested, and the “inhibition of c-raf mRNA expression” value [1] was “greater than 90%”.

For “CdCdAd CdAdCd CdGdAd CdGdGd CdGdCd CdCd [Oligonucleotide 2570, reference compound]”, the “selectivity toward the mutant form of ras-luciferase as compared to the normal form” value [2] was “threefold”, the “inhibition of ras-luciferase activity” value [2] was “dose-dependent inhibition” and the Tm [3] was 64.2 °C. For the same substance, the “ras expression / ras mRNA levels” value [4] was “inhibited ras expression in T24 cells; also recorded: decreased ras mRNA levels in T24 cells” and the ras expression [5] was “did not inhibit ras expression in HeLa cells”.

With “O-Pentyl: 17-mer CCACACCGACGGCGCCC (SEQ ID NO: 1), 2′-O-pentyl nucleotides flanking a 7-base deoxy gap (sugars from the 5' end [OPent]5 d7 [OPent]5, backbone and methylation of C not given here)” the Tm [3] was 68.5 °C.

In the case of “C^MC^MA^M C^MA^MCd CdGdAd CdGdGd C^MG^MC^M C^MC^M [Oligonucleotide 3985]”, the “inhibition of ras-luciferase activity” value [2] is reported as “greatest inhibition”, the Tm [3] is reported as 74.7 °C and the “inhibition of ras expression / decrease of ras mRNA” value [4] is reported as 95% and 81%. For the same substance, the IC50 [6] was 0.061 µM and the inhibited cell proliferation [6] was 82%.

For “TCCGTCATCGCTCCTCAGGG [Compound 2503, reference compound]”, the “inhibition of ras expression / decrease of ras mRNA” value [4] was 71%, the “ras expression / ras mRNA levels” value [4] was “inhibited ras expression in T24 cells” and the ras expression [5] was “inhibited ras expression in HeLa cells”.

With “TTCTCGCCCGCTCCTCCTCC (all phosphorothioate, sugars by position and methylation of C not given here; further chemistry not fully specified) [ISIS 7856, chimeric 2′-O-methyl P═S c-raf oligonucleotide, 5′UTR]” the “inhibition of c-raf mRNA expression” value [1] was > 70%.

For “C^FC^FA^F C^FA^FCd CdGdAd CdGdGd C^FG^FC^F C^FC^F [Oligonucleotide 4690]”, the Tm [3] was 76.9 °C, the “antisense activity against H-ras (ras expression)” value [7] was “most active” and the “inhibition of ras expression / decrease of ras mRNA” value [4] was 82%. It also gave an IC50 [6] of 0.044 µM and an inhibited cell proliferation [6] of 93%.

For “Oligonucleotide 4689: SEQ ID NO:1 chimeric oligonucleotide, 2′-fluoro-modified nucleotides flanking a 5-deoxy gap (CCACACCGACGGCGCCC; sugars from the 5' end f6 d5 f6, backbone and methylation of C not given here)”, the “antisense activity against H-ras (ras expression)” value [7] was “also active” and the “inhibition of ras expression / decrease of ras mRNA” value [4] was 63%.

“TTCTCCTCCTCCCCTGGCAG (sugars from the 5' end m12 d8, all phosphorothioate, T or U not given here) [ISIS 7854, chimeric 2′-O-methyl P═S c-raf oligonucleotide, 3′UTR]” was tested, and the “inhibition of c-raf mRNA expression” value [1] was > 70%.

In the case of “CTCGCCCGCTCCTCCTCCCC (all phosphorothioate, sugars by position and methylation of C not given here; further chemistry not fully specified) [ISIS 7849, chimeric 2′-O-methyl P═S c-raf oligonucleotide, 5′UTR]”, the “inhibition of c-raf mRNA expression” value [1] is reported as > 70%.
